Results reported in patent US20240327463A1, “ANTIBACTERIAL PRODUCTS” (priority 2017, published 2024).
≈ marks a conversion by molar mass, not a printed value. Bridge positions count the residues as written; N and C are the ends. Square brackets hold non-standard residues; d marks the D form. Peptide text beside a SMILES is read from it. dNMeF = CN[C@H](Cc1ccccc1)C(=O)O

How the values were obtained:
Enterococcus = test system: Enterococcus
Method in brief: (§1)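 Twofold dilutions of DMSO-solubilised peptides (from 512 μg/ml) in Mueller Hinton; 24 h incubation, 37° C; visible growth scored.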

MRSA ATCC 33591 = conditions: MRSA ATCC 33591
Method in brief: as §1

[1] = test system: Staphylococcus saprophyticus ATCC BAA 750; format: cell-based; conditions: ATCC BAA 750
Method in brief: (§2)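 Broth dilution in Mueller Hinton (series to well 11), 37 °C incubation, repeated three times.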

[2] = test system: Staphylococcus saprophyticus ATCC 49453; format: cell-based; conditions: ATCC 49453
Method in brief: as §2

SE12228 = format: cell-based
Method in brief: as §2

[3] = test system: Bacillus Cereus ATCC 11788; format: cell-based
Method in brief: as §2

[4] = test system: Bacillus Subtilis ATCC 6633; format: cell-based
Method in brief: as §2

[5] = test system: Staphylococcus saprophyticus ATCC 15305; format: cell-based; conditions: ATCC 15305
Method in brief: as §2

SA4299 = format: cell-based; conditions: Table 11
Method in brief: as §2

[6] = test system: Staphylococcus saprophyticus ATCC 49907; format: cell-based; conditions: ATCC 49907
Method in brief: as §2

VRE 1001 = format: cell-based, Enterococcus faecalis
Method in brief: as §2

VRE 1008 = format: cell-based, Enterococcus faecalis
Method in brief: as §2

VRE 1002 = format: cell-based, Enterococcus faecalis
Method in brief: as §2

VRE 1004 = format: cell-based, Enterococcus faecalis
Method in brief: as §2

MRSA DM21455 (eye) = experiment: microbe, parasite or virus in culture; conditions: DM21455 (eye)
Method in brief: as §1

[7] = test system: Staphylococcus aureus ATCC 29213; experiment: microbe, parasite or virus in culture
Method in brief: as §1

VRE ATCC 700802 = experiment: microbe, parasite or virus in culture; conditions: ATCC 700802
Method in brief: as §1

MRSA ATCC 700699 = experiment: microbe, parasite or virus in culture; conditions: ATCC 700699
Method in brief: as §1

MRSA DR 42412 (sputum) = experiment: microbe, parasite or virus in culture; conditions: DR 42412 (sputum)
Method in brief: as §1

VRE ATCC 29212 = experiment: microbe, parasite or virus in culture; conditions: ATCC 29212
Method in brief: as §1

MRSA 1003 = format: cell-based, Staphylococcus aureus
Method in brief: as §2

[8] = test system: Staphylococcus aureus ATCC 29213; conditions: reported for a teixobactin analogue; cited from earlier work

## CC[C@@H](C)[C@@H](NC(=O)[C@@H](CCCNC(=N)N)NC(=O)[C@H](CCCNC(=N)N)NC(=O)[C@@H](NC(=O)[C@@H](Cc1ccccc1)NC)[C@@H](C)CC)C(=O)N[C@H](C(=O)N[C@@H](CO)C(=O)N[C@H]1C(=O)N[C@@H](CCCNC(=N)N)C(=O)N[C@@H](CC(C)C)C(=O)N[C@@H]([C@@H](C)CC)C(=O)O[C@H]1C)[C@@H](C)CC [Compound 31, Arg3-D-Arg4-Arg9-Leu10-teixobactin] (H-[dNMeF]IR[dR][dI]IS[dT]RLI; ester 8-C)
Enterococcus
  MIC in Enterococcus: 2 to 8 µg/mL
MRSA ATCC 33591
  MIC against MRSA ATCC 33591: 1 µg/mL (≈ 0.723 µM)
[1]
  MIC: <0.0625 µg/mL
[2]
  MIC: <0.0625 µg/mL
SE12228
  MIC: <0.0625 µg/mL
[3]
  MIC: 1 µg/mL (≈ 0.723 µM)
[4]
  MIC: <0.0625 µg/mL
[5]
  MIC: 0.25 µg/mL (≈ 0.181 µM)
SA4299
  MIC: 1 µg/mL (≈ 0.723 µM)
[6]
  MIC: <0.0625 µg/mL
VRE 1001
  MIC: 2 µg/mL (≈ 1.45 µM)
VRE 1008
  MIC: 8 µg/mL (≈ 5.78 µM)
VRE 1002
  MIC: 8 µg/mL (≈ 5.78 µM)
VRE 1004
  MIC: 4 µg/mL (≈ 2.89 µM)
MRSA DM21455 (eye)
  MIC: 2 µg/mL (≈ 1.45 µM)
[7]
  MIC against Staphylococcus aureus ATCC 29213: 1 µg/mL (≈ 0.723 µM)
VRE ATCC 700802
  MIC: 4 µg/mL (≈ 2.89 µM)
MRSA ATCC 700699
  MIC: 2 µg/mL (≈ 1.45 µM)
MRSA DR 42412 (sputum)
  MIC: 2 µg/mL (≈ 1.45 µM)
VRE ATCC 29212
  MIC: 4 µg/mL (≈ 2.89 µM)
MRSA 1003
  MIC: 2 µg/mL (≈ 1.45 µM)

## Lys3-D-Lys4-Lys10-teixobactin
[8]
  reported MIC against Staphylococcus aureus ATCC 29213: 8 µg/mL
